Laboratory results published in PMC9841576, “Characterisation of C101248: A novel selective THIK-1 channel inhibitor for the modulation of microglial NLRP3-inflammasome” (Neuropharmacology, 2023).
Read-outs that look alike come from different tables or passages of the source.

Biological target: T1, THIK-1 (Homo sapiens, UniProt Q9HB14)
T1 construct: expressed in transfected cells
T1 sequence (Q9HB14 1-408): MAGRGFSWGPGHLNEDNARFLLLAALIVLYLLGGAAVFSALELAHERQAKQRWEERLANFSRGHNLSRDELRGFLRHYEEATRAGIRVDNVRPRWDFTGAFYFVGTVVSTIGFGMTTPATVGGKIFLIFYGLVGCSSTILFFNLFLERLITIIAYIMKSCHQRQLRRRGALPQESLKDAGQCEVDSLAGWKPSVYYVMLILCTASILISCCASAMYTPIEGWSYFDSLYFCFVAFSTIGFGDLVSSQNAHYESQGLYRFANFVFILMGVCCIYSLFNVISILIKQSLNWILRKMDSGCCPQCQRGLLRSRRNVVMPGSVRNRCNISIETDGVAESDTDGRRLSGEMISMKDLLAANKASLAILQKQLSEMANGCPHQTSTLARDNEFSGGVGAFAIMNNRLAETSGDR
Assay: FLIPR thallium influx assay, HEK-hTHIK-1 cells
Type: cell-based
Method: HEK-293 cells were transfected with human THIK-1, TREK-1, TWIK-2, or mouse THIK-1 cDNA cloned into pcDNA3.1, using either Fugene HD transfection reagent (Promega) or electroporation (MaxCyte STX instrument). Cells stably expressing the relevant genes were selected based on resistance to 500 μg/ml geneticin (Gibco). For human THIK-1 and TWIK-2 expressing cells, monoclonal lines were isolated by limited dilution cloning; mouse THIK-1 and human TREK-1 expressing cells were maintained as polyclonal pools. The HEK-293 pools and monoclones stably expressing the relevant genes were maintained in DMEM (Life Technologies), supplemented with 10% FCIII (HyClone, Fetal clone III) and 500 μg/ml geneticin. A CHO-Kv2.1 cell line was purchased from Millipore (accession NM_004975) and maintained in F12 (Life Technologies), supplemented with 10% FCSIII (Thermo Scientific) and 500 μg/ml geneticin (Life Technologies). For thallium flux assays, banks of frozen cell aliquots were prepared the day prior to assay, cells were thawed into media and seeded into PDL coated 384-well plates (Corning) at 25,000 (human/mouse THIK-1, TREK-1) or 30,000 (TWIK-2) cells/well (25 μl/well). CHO-Kv2.1 cells were seeded into non-PDL coated plates (Corning) at 5000 cells/well. Plated cells were incubated overnight at 37 °C, 5% CO2 in a humidified atmosphere. For Q-Patch assays, cells were cultured for 7 days prior to assay, dissociated, and diluted to 1–2.5 million/ml in EX-CELL ACF serum free media containing HEPES (25 mM; Life Technologies), penicillin/streptomycin (100 U/ml, 100 μg/ml; Life Technologies) and a trypsin inhibitor (0.04 mg/ml).
A fluorescence-based thallium influx assay (Molecular Devices potassium assay kit) was used to monitor channel activity. In brief, component A was reconstituted in 17 ml of chloride-free assay buffer (130 mM sodium D-gluconate, 5 mM potassium D-gluconate, 2 mM calcium D-gluconate, 1 mM magnesium D-gluconate, 5 mM NaHCO3, 20 mM HEPES; pH adjusted to 7.4 with NaOH and filtered (0.45 μm filter)) and component C reconstituted in 30 μl of DMSO. Components A and C were combined, and probenecid was added (Life Technologies; final assay concentration (FAC) 4.75 mM for HEK cell lines and 2.47 mM for CHO-Kv2.1) to provide the final dye solution. Media was removed from the cell plates and replaced with dye (20 μl/well) and the plates were incubated at room temperature in the dark for 60 min. On the day of the assay, a diluted compound plate (3x FAC in 1.5% DMSO) was created. Control wells contained either DMSO vehicle (1.5%, 3x FAC) or tetrapentylammonium chloride (TPA; Sigma, 258962; 1.5 mM in 1.5% DMSO, 3x FAC). A 3x thallium stimulation plate was also prepared, to provide a FAC of either 1 mM (human THIK-1) or 3 mM (mouse THIK-1, TREK-1, TWIK-2) thallium sulphate (in assay buffer). For Kv2.1, the FAC of thallium sulphate was 2.6 mM and this was prepared in assay buffer containing potassium sulphate (Sigma P9458; FAC 23.3 mM). Following 60 min of dye loading, 10 μl from the 3x FAC compound plate was added into the cell plate, which was then incubated for 15 min at room temperature in the dark. Using a fluorescent imaging plate reader (FLIPR) tetra plate reader, 15 μl thallium stimulus solution was added to the cell plate and the fluorescence signal recorded every second for 1 min (excitation: 470–495 nm, emission: 515–575 nm).

IC50 (HEK-hTHIK-1, normalised to TPA controls, read-out: IC50, inhibition of THIK-1 constitutive activity (thallium influx)): 46 nM | maximum inhibition (HEK-hTHIK-1, thallium influx, normalised to TPA controls): 102% | IC50 (human THIK-1, read-out: IC50, inhibition of human THIK-1 (abstract)): ~50 nM | potency relative to tetrapenthylammonium chloride (TPA) (human and mouse THIK-1 constitutive activity, thallium influx and Q-patch): 100 times
Structure (SMILES): Nc1nonc1-c1nc2ccccc2n1Cc1ccncc1 [C101248]
